pEC50, pIC50: −log10 of the molar value.
Columns and labels:
[1] = target: T1, HCV NS5B (Hepatitis C virus genotype 1b, UniProt Q9WMX2); test: HCV NS5B RdRp enzyme assay (standard or modified); format: biochemical; conditions: HCV NS5B RdRp genotype 1b enzyme; standard or modified assay not stated
T1 construct: The protein was expressed with an 18 amino acid C-terminal truncation to enhance the solubility; made in house; host or cells: E. coli BL21(DE3), pET21a
Method: HCV NS5B RdRp cloning, expression, and purification. The cDNA encoding the NS5B protein of HCV, genotype 1b, was cloned into the pET21a expression vector. The protein was expressed with an 18 amino acid C-terminal truncation to enhance the solubility. The E. coli competent cell line BL21(DE3) was used for expression of the protein. Cultures were grown at 37° C. for ˜4 hours until the cultures reached an optical density of 2.0 at 600 nm. The cultures were cooled to 20° C. and induced with 1 mM IPTG. Fresh ampicillin was added to a final concentration of 50 μg/ml and the cells were grown overnight at 20° C.
Cell pellets (3 L) were lysed for purification to yield 15-24 mgs of purified NS5B. The lysis buffer consisted of 20 mM Tris-HCl, pH 7.4, 500 mM NaCl, 0.5% triton X-100, 1 mM DTT, 1 mM EDTA, 20% glycerol, 0.5 mg/ml lysozyme, 10 mM MgCl2, 15 ug/ml deoxyribonuclease I, and Complete TM protease inhibitor tablets (Roche). After addition of the lysis buffer, frozen cell pellets were resuspended using a tissue homogenizer. To reduce the viscosity of the sample, aliquots of the lysate were sonicated on ice using a microtip attached to a Branson sonicator. The sonicated lysate was centrifuged at 100,000×g for 1 hr at 4° C. and filtered through a 0.2 μm filter unit (Corning).
The protein was purified using two sequential chromatography steps: Heparin sepharose CL-6B and polyU sepharose 4B (Pharmacia). The chromatography buffers were identical to the lysis buffer but contained no lysozyme, deoxyribonuclease I, MgCl2 or protease inhibitor and the NaCl concentration of the buffer was adjusted according to the requirements for charging the protein onto the column. Each column was eluted with a NaCl gradient which varied in length from 5-50 column volumes depending on the column type. After the final chromatography step, the resulting purity of the enzyme is >90% based on SDS-PAGE analysis. The enzyme was aliquoted and stored at −80° C.
Standard HCV NS5B RdRp enzyme assay. HCV RdRp genotype 1b assays were run in a final volume of 60 μl in 96 well plates (Corning 3600). The assay buffer is composed of 20 mM Hepes, pH 7.5, 2.5 mM KCl, 2.5 mM MgCl2, 1 mM DTT, 1.6 U RNAse inhibitor (Promega N2515), 0.01 mg/ml BSA (Sigma B6917), and 2% glycerol. All compounds were serially diluted (3-fold) in DMSO and diluted further in water such that the final concentration of DMSO in the assay was 2%. HCV RdRp genotype 1b enzyme was used at a final concentration of 28 nM. A polyA template was used at 6 nM, and a biotinylated oligo-dT12 primer was used at 180 nM final concentration. Template was obtained commercially (Amersham 27-4110). Biotinylated primer was prepared by Sigma Genosys. 3H-UTP was used at 0.6 μCi (0.29 μM total UTP). Reactions were initiated by the addition of enzyme, incubated at 30° C. for 60 min, and stopped by adding 25 μl of 50 mM EDTA containing SPA beads (4 μg/μl, Amersham RPNQ 0007). Plates were read on a Packard Top Count NXT after >1 hr incubation at room temperature.
Modified HCV NS5B RdRp enzyme assay. A modified enzyme assay was performed essentially as described for the standard enzyme assay except for the following: The biotinylated oligo dT12 primer was precaptured on streptavidin-coated SPA beads by mixing primer and beads in assay buffer and incubating at room temperature for one hour. Unbound primer was removed after centrifugation. The primer-bound beads were resuspended in 20 mM Hepes buffer, pH 7.5 and used in the assay at final concentrations of 20 nM primer and 0.67 μg/μl beads. Order of addition in the assay: enzyme (1.75 nM) was added to diluted compound followed by the addition of a mixture of template (0.36 nM), 3H-UTP (0.6 μCi, 0.29 μM), and primer-bound beads, to initiate the reaction; concentrations given are final. Reactions were allowed to proceed for 4 hours at 30° C.
IC50 values for compounds were determined using seven different [I]. […]

[2] = system: HCV replicon cells; test: HCV replicon FRET / luciferase assay; format: cell-based; conditions: Hepatitis C virus, 50% reduction in FRET or luciferase activity
Method: FRET Assay Preparation. The HCV FRET screening assay was performed in 96-well cell culture plates. The FRET peptide (Anaspec, Inc.) (Taliani et al., Anal. Biochem. 1996, 240, 60-67) contains a fluorescence donor, EDANS, near one end of the peptide and an acceptor, DABCYL, near the other end. The fluorescence of the peptide is quenched by […] resonance energy transfer (RET) between the donor and the acceptor, but as the NS3 protease cleaves the peptide the products are released from RET quenching and the fluorescence of the donor becomes apparent. The assay reagent was made as follows: 5× cell Luciferase cell culture lysis reagent from Promega (#E153A) diluted to 1× with dH2O, NaCl added to 150 mM final, the FRET peptide diluted to 20 μM final from a 2 mM stock.
To prepare plates, HCV replicon cells, with or without a Renilla luciferase reporter gene, were trypsinized and plated in a 96-well plate with titrated test compounds added in columns 3 through 12; columns 1 and 2 contained a control compound (HCV control inhibitor), and the bottom row contained cells with DMSO only. The plates were then placed in a CO2 incubator at 37° C.
Assays. Subsequent to addition of the test compounds described above (FRET Assay Preparation), at various times the plate was removed and Alamar blue solution (Trek Diagnostics, #00-100) was added to measure cellular toxicity. After reading in a Cytoflour 4000 instrument (PE Biosystems), plates were rinsed with PBS and then used for FRET assay by the addition of 30 ul of the FRET peptide assay reagent described above (FRET Assay Preparation) per well. The plate was then placed into the Cytoflour 4000 instrument which had been set to 340 excite/490 emission, automatic mode for up to 20 cycles and the plate read in a kinetic mode. Typically, the signal to noise using an endpoint analysis after the reads was at least three-fold. Alternatively, after Alamar blue reading, plates were rinsed with PBS, then used for luciferase assay using the Promega Dual-Glo Luciferase Assay System or the Promega EnduRen Live Cell Substrate assay.
Compound analysis was performed by quantification of the relative HCV replicon inhibition and the relative cytotoxicity values. To calculate cytoxicity values, the average Alamar Blue fluorescence signals from the control wells were set as 100% non-toxic. The individual signals in each of the compound test wells were then divided by the average control signal and multiplied by 100% to determine […]. To calculate the HCV replicon inhibition values, an average background value was obtained from the two wells containing the highest amount of HCV control inhibitor at the end of the assay period. These numbers were similar to those obtained from naïve Huh-7 cells. The background numbers were then subtracted from the average signal obtained from the control wells and this number was used as 100% activity. The individual signals in each of the compound test wells were then divided by the averaged control values after background subtraction and multiplied by 100% to determine percent activity. EC50 values were calculated as the concentration which caused a 50% reduction in FRET or luciferase activity. The two numbers generated for the compound plate, percent cytoxicity and percent activity, were used to determine compounds of interest for further analysis.

T1 sequence (Q9WMX2 2420-2992): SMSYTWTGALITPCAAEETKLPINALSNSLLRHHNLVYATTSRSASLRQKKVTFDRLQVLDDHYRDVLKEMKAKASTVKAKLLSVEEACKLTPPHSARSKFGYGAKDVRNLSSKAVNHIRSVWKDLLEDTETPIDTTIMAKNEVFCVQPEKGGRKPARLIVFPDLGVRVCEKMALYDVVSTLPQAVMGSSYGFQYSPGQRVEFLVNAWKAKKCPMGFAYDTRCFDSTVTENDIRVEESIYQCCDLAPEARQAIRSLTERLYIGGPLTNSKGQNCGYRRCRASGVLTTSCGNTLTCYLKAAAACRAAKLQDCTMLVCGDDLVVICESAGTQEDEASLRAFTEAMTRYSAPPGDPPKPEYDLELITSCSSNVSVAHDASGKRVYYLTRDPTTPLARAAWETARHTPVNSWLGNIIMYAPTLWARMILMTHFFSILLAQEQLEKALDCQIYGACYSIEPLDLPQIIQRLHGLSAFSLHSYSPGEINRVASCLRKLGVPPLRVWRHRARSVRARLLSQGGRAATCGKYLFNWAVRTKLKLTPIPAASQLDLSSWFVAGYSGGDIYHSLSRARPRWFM

Row | SMILES | pIC50 [1] | pEC50 [2]
1 | COc1ccc2c(c1)C1CC1(C(=O)N1CCC[C@H]3CN(C)C[C@H]31)Cn1c-2c(C2CCCCC2)c2ccc(C(=O)NS(=O)(=O)N(C)C)cc21 (stereo partly shown) | 6.30 to 8.34 | 6.30 to 8.34
2 | COc1ccc2c(c1)C1CC1(C(=O)N1CC3CN(C(C)=O)CC3C1)Cn1c-2c(C2CCCCC2)c2ccc(C(=O)NS(=O)(=O)C3CC3)cc21 (stereo not shown) | 6.30 to 8.34 | 6.30 to 8.34
3 | CNC(=O)N1CCCC2CN(C(=O)C34CC3c3cc(OC)ccc3-c3c(C5CCCCC5)c5ccc(C(=O)NS(=O)(=O)N(C)C)cc5n3C4)CC21 (stereo not shown) | 6.30 to 8.34 | 6.30 to 8.34
4 | COc1ccc2c(c1)C1CC1(C(=O)N1CCN3CCCCC3C1)Cn1c-2c(C2CCCCC2)c2ccc(C(=O)NS(=O)(=O)N(C)C)cc21 (stereo not shown) | 6.30 to 8.34 | 6.30 to 8.34
5 | COc1ccc2c(c1)C1CC1(C(=O)N1CC3CN(C(C)=O)CC3C1)Cn1c-2c(C2CCCCC2)c2ccc(C(=O)NS(=O)(=O)N(C)C)cc21 (stereo not shown) | 6.30 to 8.34 | 6.30 to 8.34
6 | COc1ccc2c(c1)C1CC1(C(=O)N1CC3CCCN(C(=O)OC(C)(C)C)C3C1)Cn1c-2c(C2CCCCC2)c2ccc(C(=O)NS(=O)(=O)C3CC3)cc21 (stereo not shown) | 6.30 to 8.34 | 6.30 to 8.34
7 | COc1ccc2c(c1)C1CC1(C(=O)N1CCN3CCCC3C1)Cn1c-2c(C2CCCCC2)c2ccc(C(=O)NS(=O)(=O)C3CC3)cc21 (stereo not shown) | 6.30 to 8.34 | 6.30 to 8.34
8 | COc1ccc2c(c1)C1CC1(C(=O)N1CCC[C@H]3CN(C(C)=O)C[C@H]31)Cn1c-2c(C2CCCCC2)c2ccc(C(=O)NS(=O)(=O)N(C)C)cc21 (stereo partly shown) | 6.30 to 8.34 | 6.30 to 8.34

Reference: patent US7521444B2, “Compounds for the treatment of hepatitis C” (Bristol-Myers Squibb Company, priority 2007, dated 2009)
